Columns and labels:
Assay type in all cases: cell-based
[1] = system: Haemophilus Influenzae 351CB12; assay: Activity on Gram- bacterial strains
Description: (§1) Method of Dilutions in Liquid Medium
(§2) A series of tubes were prepared in which the same quantity of nutritive sterile medium was distributed. Increasing quantities of the product to be studied were distributed into each tube and then each tube was seeded with a bacterial strain. After incubation for twenty-four hours in an oven at 37° C., the growth inhibition was evaluated by transillumination, which allowed the minimal inhibitory concentrations (M.I.C.) to be determined, expressed in micrograms/ml.

[2] = system: Haemophilus Influenzae 351HT3; assay: Activity on Gram- bacterial strains
Description: as §1, §2

[3] = system: Haemophilus Influenzae 351CA1; assay: Activity on Gram- bacterial strains
Description: as §1, §2

[4] = system: S. aureus 011UC4; assay: Method of dilutions in liquid medium (M.I.C.); conditions: reading after 24 hours, 37° C.
Description: as §2, with “Method of Dilutions in Liquid Medium A series” for “A series”, “in micrograms/ml. The following results were obtained: (reading after 24 hours)” for “in micrograms/ml.”

[5] = system: S. faecium 02D3HT1; assay: Method of dilutions in liquid medium (M.I.C.); conditions: reading after 24 hours, 37° C.
Description: as §2, with “Method of Dilutions in Liquid Medium A series” for “A series”, “in micrograms/ml. The following results were obtained: (reading after 24 hours)” for “in micrograms/ml.”

[6] = system: S. faecalis 02D2UC1; assay: Method of dilutions in liquid medium (M.I.C.); conditions: reading after 24 hours, 37° C.
Description: as §2, with “Method of Dilutions in Liquid Medium A series” for “A series”, “in micrograms/ml. The following results were obtained: (reading after 24 hours)” for “in micrograms/ml.”

[7] = system: S. pneumoniae 030GR20; assay: Method of dilutions in liquid medium (M.I.C.); conditions: reading after 24 hours, 37° C.
Description: as §2, with “Method of Dilutions in Liquid Medium A series” for “A series”, “in micrograms/ml. The following results were obtained: (reading after 24 hours)” for “in micrograms/ml.”

[8] = system: S. pneumoniae 032UC1; assay: Method of dilutions in liquid medium (M.I.C.); conditions: reading after 24 hours, 37° C.
Description: as §2, with “Method of Dilutions in Liquid Medium A series” for “A series”, “in micrograms/ml. The following results were obtained: (reading after 24 hours)” for “in micrograms/ml.”

[9] = system: S. agalactiae 02B1SJ1c; assay: Method of dilutions in liquid medium (M.I.C.); conditions: reading after 24 hours, 37° C.
Description: as §2, with “Method of Dilutions in Liquid Medium A series” for “A series”, “in micrograms/ml. The following results were obtained: (reading after 24 hours)” for “in micrograms/ml.”

[10] = system: S. mitis 02MitCB1; assay: Method of dilutions in liquid medium (M.I.C.); conditions: reading after 24 hours, 37° C.
Description: as §2, with “Method of Dilutions in Liquid Medium A series” for “A series”, “in micrograms/ml. The following results were obtained: (reading after 24 hours)” for “in micrograms/ml.”

[11] = system: S. pyogenes 02A1UC1; assay: Method of dilutions in liquid medium (M.I.C.); conditions: reading after 24 hours, 37° C.
Description: as §2, with “Method of Dilutions in Liquid Medium A series” for “A series”, “in micrograms/ml. The following results were obtained: (reading after 24 hours)” for “in micrograms/ml.”

[12] = system: Streptococcus gr. G 02GOGR5; assay: Method of dilutions in liquid medium (M.I.C.); conditions: reading after 24 hours, 37° C.
Description: as §2, with “Method of Dilutions in Liquid Medium A series” for “A series”, “in micrograms/ml. The following results were obtained: (reading after 24 hours)” for “in micrograms/ml.”

[13] = system: S. epidermidis 012GO11I; assay: Method of dilutions in liquid medium (M.I.C.); conditions: reading after 24 hours, 37° C.
Description: as §2, with “Method of Dilutions in Liquid Medium A series” for “A series”, “in micrograms/ml. The following results were obtained: (reading after 24 hours)” for “in micrograms/ml.”

[14] = system: S. agalactiae 02B1HT1; assay: Method of dilutions in liquid medium (M.I.C.); conditions: reading after 24 hours, 37° C.
Description: as §2, with “Method of Dilutions in Liquid Medium A series” for “A series”, “in micrograms/ml. The following results were obtained: (reading after 24 hours)” for “in micrograms/ml.”

[15] = system: S. aureus 011GO25I; assay: Method of dilutions in liquid medium (M.I.C.); conditions: reading after 24 hours, 37° C.
Description: as §2, with “Method of Dilutions in Liquid Medium A series” for “A series”, “in micrograms/ml. The following results were obtained: (reading after 24 hours)” for “in micrograms/ml.”

Row | Molecule | activity on Gram- bacterial strain [1] | activity on Gram- bacterial strain [2] | activity on Gram- bacterial strain [3] | minimal inhibitory concentrations (M.I.C.) ([4]; S. aureus 011UC4 + 50% serum) [micrograms/ml] | minimal inhibitory concentrations (M.I.C.) ([4]; S. aureus 011UC4) [micrograms/ml] | minimal inhibitory concentrations (M.I.C.) [5] | minimal inhibitory concentrations (M.I.C.) [6] [micrograms/ml] | minimal inhibitory concentrations (M.I.C.) [7] | minimal inhibitory concentrations (M.I.C.) [8] [micrograms/ml] | minimal inhibitory concentrations (M.I.C.) [9] [micrograms/ml] | minimal inhibitory concentrations (M.I.C.) [10] [micrograms/ml] | minimal inhibitory concentrations (M.I.C.) [11] | minimal inhibitory concentrations (M.I.C.) [12] [micrograms/ml] | minimal inhibitory concentrations (M.I.C.) [13] [micrograms/ml] | minimal inhibitory concentrations (M.I.C.) [14] | minimal inhibitory concentrations (M.I.C.) [15] [micrograms/ml]
1 | CC[C@H]1OC(=O)[C@@](C)(F)C(=O)[C@H](C)[C@@H](O[C@@H]2O[C@H](C)C[C@H](N(C)C)[C@H]2O)[C@](C)(OC)C[C@@H](C)C2=NCCN3C(=O)O[C@@]1(C)[C@H]3[C@H]2C (relative stereo) [Example 1, [3 as-(3aR*,4S*,7R*,9S*,10S*,11S*,13S*,15S*,15aS*)]-4-ethyl-7-fluoro-3a,4,10,11,12,13,15,15a-octahydro-11-methoxy-3a,7,9,11,13,15-hexamethyl-10-[[3,4,6-trideoxy-3-(dimethyl-amino)-beta-D-xylo-hexopyranosyl]oxy]-14,1-(nitriloethano)-2H-oxacyclotetradecino[4,3-d]oxazole-2,6,8(9H)-trione] | useful activity | useful activity | useful activity | 0.040 | 0.150 | # 0.02 micrograms/ml | 0.040 | # 0.02 micrograms/ml | 0.080 | 1.200 | 0.040 | 0.040 micrograms/ml | 0.040 | 0.300 | # 0.02 micrograms/ml | 0.600
2 | (3aS,4R,7S,9R,10R,11R,13R,15R,15aR,18S)-4-ethyl-7-fluoro-3a,4,10,11,12,13,15,15a-octahydro-18-(hydroxymethyl)-11-methoxy-3a,7,9,11,13,15-hexamethyl-10-[[3,4,6-trideoxy-3-(dimethylamino)-beta-D-xylo-hexopyranosyl]oxy]-14,1-(nitriloethano)-2H-oxacyclotetradecino[4,3-d]oxazole-2,6,8(7H,9H)-trione [Example 3] |  |  |  | 0.040 | 0.040 | 0.02 micrograms/ml | 0.02 | 0.02 micrograms/ml | 0.02 | 0.02 | 0.02 | # 0.02 micrograms/ml | 0.02 | 0.150 | 0.02 micrograms/ml | 0.040

Reference: patent US7119180B2, “2-halogenated derivatives of 5-O-desosaminyl-erythronolide A, their preparation process and their antibiotic use” (Aventis Pharma S.A., priority 1998, dated 2006)
